Measurements taken from PubChem BioAssay (NCI).
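A five-concentration, 48-hour dose response in 96-well plates underlies each endpoint, interpolated linearly between surrounding concentrations. At the GI50, growth is halved. TGI: total growth inhibition.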

Legend:
Test in all cases: growth of human tumour cells (NCI), 48 h
[1] = tested on: 786-0 renal
[2] = tested on: A498 renal
[3] = tested on: A549 NSCLC
[4] = tested on: ACHN renal
[5] = tested on: BT-549 breast
[6] = tested on: CCRF-CEM leukemia
[7] = tested on: COLO 205 colon
[8] = tested on: DU-145 prostate
[9] = tested on: EKVX NSCLC
[10] = tested on: HCC-2998 colon
[11] = tested on: HCT-116 colon
[12] = tested on: HCT-15 colon
[13] = tested on: HL-60(TB) leukemia
[14] = tested on: HOP-62 NSCLC
[15] = tested on: HOP-92 NSCLC
[16] = tested on: HS 578T breast
[17] = tested on: HT29 colon
[18] = tested on: IGROV1 ovarian
[19] = tested on: K-562 leukemia
[20] = tested on: KM12 colon
[21] = tested on: LOX IMVI melanoma
[22] = tested on: MALME-3M melanoma
[23] = tested on: MCF7 breast
[24] = tested on: MDA-MB-231 breast
[25] = tested on: MOLT-4 leukemia
[26] = tested on: NCI-H226 lung
[27] = tested on: NCI-H23 lung
[28] = tested on: NCI-H460 lung
[29] = tested on: NCI-H522 lung
[30] = tested on: NCI/ADR-RES ovarian
[31] = tested on: OVCAR-3 ovarian
[32] = tested on: OVCAR-4 ovarian
[33] = tested on: OVCAR-5 ovarian
[34] = tested on: OVCAR-8 ovarian
[35] = tested on: PC-3 prostate
[36] = tested on: RPMI-8226 leukemia
[37] = tested on: RXF 393 renal
[38] = tested on: SF-268 CNS
[39] = tested on: SF-295 CNS
[40] = tested on: SF-539 CNS
[41] = tested on: SK-MEL-2 melanoma
[42] = tested on: SK-MEL-28 melanoma
[43] = tested on: SK-MEL-5 melanoma
[44] = tested on: SK-OV-3 ovarian
[45] = tested on: SN12C renal
[46] = tested on: SNB-19 CNS
[47] = tested on: SNB-75 CNS
[48] = tested on: SR leukemia
[49] = tested on: SW-620 colon
[50] = tested on: T-47D breast
[51] = tested on: TK-10 renal
[52] = tested on: U251 CNS
[53] = tested on: UACC-257 melanoma
[54] = tested on: UACC-62 melanoma
[55] = tested on: UO-31 renal
[56] = tested on: CAKI-1 renal
[57] = tested on: M14 melanoma
[58] = tested on: MDA-MB-435

C#CCCCCCC(=O)N[C@H]1C=C[C@@H]2/C=C(C)/C=C/[C@@H](C)[C@H]([C@H](C)[C@H](O)[C@@H](C)NC(C)=O)OC(=O)/C=C/C=C(C)\C=C\[C@]2(C)C1 was tested, and the GI50 [1] was < 0.004 µM, the TGI [1] was > 40 µM and the GI50 [2] was 0.0046 µM. For the same compound, the TGI [2] was 0.0383 µM, the GI50 [3] was < 0.004 µM and the TGI [3] was > 40 µM. For the same compound, the GI50 [4] was < 0.004 µM, the TGI [4] was > 40 µM and the GI50 [5] was < 0.004 µM. The TGI [5] was > 40 µM, the GI50 [6] was 0.479 µM and the TGI [6] was > 40 µM. It also gave a GI50 [7] of 0.00414 µM, a TGI [7] of 4.06 µM and a GI50 [8] of 0.0157 µM. The TGI [8] was > 40 µM, the GI50 [9] was 0.0213 µM and the TGI [9] was > 40 µM. The GI50 [10] was 6.16 µM, the TGI [10] was > 40 µM and the GI50 [11] was < 0.004 µM. The TGI [11] was > 40 µM, the GI50 [12] was 0.00804 µM and the TGI [12] was > 40 µM. The GI50 [13] was 0.0335 µM, the TGI [13] was 9.31 µM and the GI50 [14] was 0.0107 µM. For the same compound, the TGI [14] was > 40 µM, the GI50 [15] was < 0.004 µM and the TGI [15] was 0.0159 µM. The GI50 [16] was 0.00422 µM, the TGI [16] was > 40 µM and the GI50 [17] was < 0.004 µM. For the same compound, the TGI [17] was 25.1 µM, the GI50 [18] was 0.00681 µM and the TGI [18] was > 40 µM. For the same compound, the GI50 [19] was < 0.004 µM, the TGI [19] was > 40 µM and the GI50 [20] was 0.00501 µM. The TGI [20] was > 40 µM, the GI50 [21] was < 0.004 µM and the TGI [21] was < 0.004 µM. The GI50 [22] was 0.567 µM, the TGI [22] was 17.9 µM and the GI50 [23] was < 0.004 µM. For the same compound, the TGI [23] was > 40 µM, the GI50 [24] was < 0.004 µM and the TGI [24] was < 0.004 µM. The GI50 [25] was 6.79 µM, the TGI [25] was > 40 µM and the GI50 [26] was 0.00478 µM. For the same compound, the TGI [26] was 6.05 µM, the GI50 [27] was 0.0942 µM and the TGI [27] was > 40 µM. For the same compound, the GI50 [28] was < 0.004 µM, the TGI [28] was > 40 µM and the GI50 [29] was 0.0091 µM. For the same compound, the TGI [29] was 14.2 µM, the GI50 [30] was 0.0258 µM and the TGI [30] was > 40 µM. For the same compound, the GI50 [31] was 0.00889 µM, the TGI [31] was > 40 µM and the GI50 [32] was 3.06 µM. The TGI [32] was > 40 µM, the GI50 [33] was 6.53 µM and the TGI [33] was > 40 µM. The GI50 [34] was < 0.004 µM, the TGI [34] was > 40 µM and the GI50 [35] was < 0.004 µM. For the same compound, the TGI [35] was > 40 µM, the GI50 [36] was < 0.004 µM and the TGI [36] was 4.61 µM. The GI50 [37] was < 0.004 µM, the TGI [37] was 2.48 µM and the GI50 [38] was 0.397 µM. The TGI [38] was > 40 µM, the GI50 [39] was < 0.004 µM and the TGI [39] was 0.0182 µM. For the same compound, the GI50 [40] was < 0.004 µM, the TGI [40] was 32.3 µM and the GI50 [41] was 4.87 µM. For the same compound, the TGI [41] was > 40 µM, the GI50 [42] was 0.00795 µM and the TGI [42] was 12.3 µM. For the same compound, the GI50 [43] was < 0.004 µM, the TGI [43] was 0.00803 µM and the GI50 [44] was < 0.004 µM. The TGI [44] was > 40 µM, the GI50 [45] was < 0.004 µM and the TGI [45] was > 40 µM. For the same compound, the GI50 [46] was 0.0247 µM, the TGI [46] was > 40 µM and the GI50 [47] was 0.0127 µM. For the same compound, the TGI [47] was > 40 µM, the GI50 [48] was < 0.004 µM and the TGI [48] was 9.53 µM. The GI50 [49] was < 0.004 µM, the TGI [49] was > 40 µM and the GI50 [50] was < 0.004 µM. The TGI [50] was 13.6 µM, the GI50 [51] was 0.0158 µM and the TGI [51] was > 40 µM. For the same compound, the GI50 [52] was < 0.004 µM, the TGI [52] was > 40 µM and the GI50 [53] was < 0.004 µM. For the same compound, the TGI [53] was 0.0324 µM, the GI50 [54] was 0.023 µM and the TGI [54] was 9.04 µM. For the same compound, the GI50 [55] was < 0.004 µM and the TGI [55] was 8.95 µM.
In the case of C(=C\c1cc[n+](CCc2ccccc2)cc1)/c1ccccc1, the TGI [1] is reported as > 100 µM, the TGI [3] is reported as 51.8 µM and the TGI [4] is reported as > 100 µM. The TGI [5] was 57.9 µM, the TGI [56] was 86.1 µM and the TGI [6] was 42.5 µM. For the same compound, the TGI [7] was 25.6 µM, the TGI [8] was > 100 µM and the TGI [9] was > 100 µM. For the same compound, the TGI [11] was 65.4 µM, the TGI [12] was > 100 µM and the TGI [14] was 40.4 µM. The TGI [15] was > 100 µM, the TGI [16] was 54.6 µM and the TGI [17] was 35.1 µM. For the same compound, the TGI [18] was > 100 µM, the TGI [19] was 63.6 µM and the TGI [20] was 18.2 µM. It also gave a TGI [21] of 37 µM, a TGI [57] of 31.5 µM and a TGI [22] of 28.6 µM. For the same compound, the TGI [23] was > 100 µM, the TGI [24] was 29.1 µM and the TGI [58] was 18.4 µM. It also gave a TGI [25] of 69.4 µM, a TGI [26] of 48.9 µM and a TGI [27] of 43.7 µM. The TGI [28] was > 100 µM, the TGI [29] was 45.4 µM and the TGI [30] was > 100 µM. The TGI [31] was 26.5 µM, the TGI [32] was 50.9 µM and the TGI [33] was 88.5 µM. For the same compound, the TGI [34] was 19.5 µM, the TGI [35] was > 100 µM and the TGI [36] was 53.2 µM. The TGI [37] was > 100 µM, the TGI [38] was 74.5 µM and the TGI [39] was > 100 µM. For the same compound, the TGI [40] was 50.5 µM, the TGI [41] was 55.2 µM and the TGI [42] was 26.8 µM. For the same compound, the TGI [43] was 5.73 µM, the TGI [44] was > 100 µM and the TGI [45] was 16.4 µM. The TGI [46] was 50.9 µM, the TGI [47] was > 100 µM and the TGI [49] was 32.3 µM. The TGI [50] was 71.7 µM, the TGI [51] was > 100 µM and the TGI [52] was 18.9 µM. For the same compound, the TGI [53] was 17.5 µM, the TGI [54] was 22.9 µM and the TGI [55] was > 100 µM.
